Measurements published in US20230355708A1 (priority 2020, published 2023).
pIC50: −log10 of the molar value. *1 amine or outer side, *2 acyl side, *3 side chain or, on linkers, in order; H or OH if unused. Where a SMILES comes first, the peptide text is derived from it. Bridges are numbered along the chain shown (N, C = ends). [ ]: non-standard residue; d: D form. X1 = Cc1ccc(-c2ccc(-c3cn([C@H]4C[C@@H](C(=O)[*:2])N([*:1])C4)nn3)cc2)s1

Columns and labels:
clade_AE envelope = assay type: binding, HIV-1
HIV-1 = assay type: in vivo; settings: animal model
HIVBal.01 = settings: read-out: HIVBal.01 IC50
HIVJRFL = settings: read-out: HIVJRFL IC50
Fully-infected HIVNL4.3 = settings: read-out: Fully-infected HIVNL4.3 IC50
SARS-CoV-2 pseudoviruses [1] = assay type: cell-based
SARS-CoV-1 pseudoviruses [2] = assay type: cell-based
SARS-CoV-2 pseudoviruses [3] = system: SARS-CoV-2 pseudoviruses
SARS-CoV-1 pseudoviruses [4] = system: SARS-CoV-1 pseudoviruses
SARS-CoV-2 pseudoviruses [5] = assay type: cell-based; remark: listed apart in the source
SARS-CoV-1 pseudoviruses [6] = assay type: cell-based; remark: listed apart in the source
[7] = biological target: SARS-CoV-2 spike S2 subunit (Severe acute respiratory syndrome coronavirus 2, UniProt P0DTC2)

CC[C@H](C)[C@@H]1NC(=O)[C@H](CC(N)=O)NC(=O)[C@@H](N)CC(=O)NCCCC[C@@H](C(N)=O)NC(=O)[C@H](Cc2c[nH]c3ccccc23)NC(=O)[C@@H]2C[C@H](n3cc(-c4ccc(-c5ccc(C)s5)cc4)nn3)CN2C1=O [AAR029N2, (3S,6S,14S,17S,20S,24S,25aS)-3-((1H-indol-3-yl)methyl)-14-amino-17-(2-amino-2-oxoethyl)-20-((S)-sec-butyl)-24-(4-(4-(5-methylthiophen-2-yl)phenyl)-1H-1,2,3-triazol-1-yl)-1,4,12,15,18,21-hexaoxotetracosahydro-1H-pyrrolo[2,1-f][1,4,7,10,13,18]hexaazacyclotricosine-6-carboxamide] (H-DNI[X1]WK-NH2; lactam 1-6) was tested, and the “binding to clade_AE envelope” value (clade_AE envelope) was “binds clade_AE envelope”, the “HIV-1 viral load normalized to Hu CD4+ T cell counts” value (HIV-1) was “significant efficacy in an animal model” and the pIC50 (HIVBal.01) was ~7.00. For the same compound, the pIC50 (HIVJRFL) was ~6.95 and the pIC50 (Fully-infected HIVNL4.3) was ~6.74.
In the case of GRFT: lectin Griffithsin, SEQ ID NO:2, the “inhibition of SARS-CoV-2 pseudovirus infection” value (SARS-CoV-2 pseudoviruses [1]) was “reduced inhibition of infection”, the “inhibition of SARS-CoV-1 pseudovirus infection” value (SARS-CoV-1 pseudoviruses [2]) was “reduced inhibition of infection” and the “virolysis of SARS-CoV-2 pseudoviruses” value (SARS-CoV-2 pseudoviruses [3]) was “does not causes significant virolysis”. The “virolysis of SARS-CoV-1 pseudoviruses” value (SARS-CoV-1 pseudoviruses [4]) was “does not causes significant virolysis”, the “irreversible inactivation of SARS-CoV-2” value (SARS-CoV-2 pseudoviruses [5]) was “partial irreversible inactivation” and the “irreversible inactivation of SARS-CoV-1” value (SARS-CoV-1 pseudoviruses [6]) was “partial irreversible inactivation”. The “stoichiometry of binding, S2 versus S1” value [7] was “higher for the S2 subunit as compared to the S1 subunit”.
